From patent US11180504B2 (ORCHID PHARMA LTD., priority 2016, dated 2021) come the findings set out here.

By MIC is commonly meant the least concentration at which growth counts as inhibited.

The structures appear in SMILES notation. Values after ≈ are worked out from the molar mass of the structure shown. Like-named read-outs stand apart in the source and are kept apart here.

Assay [1] concerns carbapenem sensitive Pseudomonas aeruginosa. In words: MIC by broth micro-dilution (CLSI), carbapenem sensitive P. aeruginosa. Format: cell-based. (In general: Dilution methods test growth across graded concentrations, often in twofold steps.)
Assay [2] deals with carbapenem sensitive Escherichia coli. Nature of the assay: MIC by broth micro-dilution (CLSI), carbapenem sensitive E. coli. It is filed as cell-based.
Assay [3] concerns methicillin-sensitive Staphylococcus aureus. Nature of the assay: MIC by broth micro-dilution (CLSI), methicillin-sensitive S. aureus. It is filed as cell-based. Particulars: MSSA S. aureus ATCC29213.
The test system of assay [4] is carbapenemase producing K. pneumoniae. In words: MIC by broth micro-dilution (CLSI), carbapenemase producing K. pneumoniae. It is filed as cell-based, Klebsiella pneumoniae.
Setting [5] is: Pseudomonas aeruginosa, ATCC27853, Meropenem susceptible P. aeruginosa ATCC27853, read-out: MIC.
The mark [6] stands for this setting: Escherichia coli, ATCC25922, ESBL −ve E. coli ATCC25922, read-out: MIC.
Where [7] appears, read: Staphylococcus aureus, ATCC 29213 / MSSA, read-out: MIC.
Where [8] appears, read: Klebsiella pneumoniae, ATCCBAA1705, KPC-2 K. pneumoniae ATCC BAA-1705, read-out: MIC.
Setting [9] is: Meropenem susceptible P. aeruginosa ATCC27853.
Setting [10] is: KPC-2 K. pneumoniae ATCC BAA-1705.

In the case of `C[C@@H](NC(=O)C(F)F)[C@H]1C(=O)N2C(C(=O)O)=C(S[C@@H]3CN[C@H](CNC(=O)[C@@H]4C[C@@H](N)CN4)C3)[C@H](C)[C@H]12` [Example 261], the MIC was 64 µg/mL (≈ 121 µM) in assay [1] (setting [5]), 2 µg/mL (≈ 3.77 µM) in assay [2] (setting [6]), 2 µg/mL (≈ 3.77 µM) in assay [3] (setting [7]) and 16 µg/mL (≈ 30.2 µM) in assay [4] (setting [8]).

With `C[C@@H](NC(=O)Cn1cnnn1)[C@H]1C(=O)N2C(C(=O)O)=C(S[C@@H]3CN[C@H](C(=O)N4CCC(N)(CO)CC4)C3)[C@H](C)[C@H]12` [Example 475, (4R,5S,6R)-6-((R)-1-(2-(1H-tetrazol-1-yl)acetamido)ethyl)-3-((3S,5S)-5-(4-amino-4-(hydroxymethyl)piperidine-1-carbonyl)pyrrolidin-3-ylthio)-4-methyl-7-oxo-1-azabicyclo[3.2.0]hept-2-ene-2-carboxylic acid], the MIC in assay [1] (setting [5]) was found to be 2 µg/mL (≈ 3.46 µM); in assay [2] (setting [6]), 0.5 µg/mL (≈ 0.866 µM); in assay [3] (setting [7]), 4 µg/mL (≈ 6.92 µM); in assay [4] (setting [8]) it was 2 µg/mL (≈ 3.46 µM).

`C[C@@H](NC(=O)Cn1cnnn1)[C@H]1C(=O)N2C(C(=O)O)=C(S[C@@H]3CN[C@H](C(=O)NC[C@@H]4CCNC4)C3)[C@H](C)[C@H]12` [Example 513, (4R,5S,6R)-6-((R)-1-(2-(1H-tetrazol-1-yl)acetamido)ethyl)-4-methyl-7-oxo-3-((3S,5S)-5-((R)-pyrrolidin-3-ylmethylcarbamoyl)pyrrolidin-3-ylthio)-1-azabicyclo[3.2.0]hept-2-ene-2-carboxylic acid]: the MIC in assay [1] (setting [5]) is 16 µg/mL (≈ 29.2 µM); in assay [2] (setting [6]), 0.25 µg/mL (≈ 0.457 µM); in assay [3] (setting [7]), 4 µg/mL (≈ 7.3 µM); in assay [4] (setting [8]), 1 µg/mL (≈ 1.83 µM).

As for `C[C@@H](NC(=O)[C@H]1CC[C@@H](N)C1)[C@H]1C(=O)N2C(C(=O)O)=C(S[C@@H]3CN[C@H](C(=O)N(C)C)C3)[C@H](C)[C@H]12` [Example 266], the MIC in assay [1] (setting [5]) was 128 µg/mL (≈ 259 µM); in assay [2] (setting [6]) it was 2 µg/mL (≈ 4.05 µM); in assay [3] (setting [7]), 64 µg/mL (≈ 130 µM); in assay [4] (setting [8]), 8 µg/mL (≈ 16.2 µM).

For the compound `C[C@@H](NC(=O)Cn1cnnn1)[C@H]1C(=O)N2C(C(=O)O)=C(S[C@@H]3CN[C@H](C(=O)N4CCC5CN(C(=N)N)CCC54)C3)[C@H](C)[C@H]12` (single isomer, unassigned) [Example 560], the minimal inhibitory concentration (MIC) in assay [1] (setting [9]) was found to be 1 µg/mL (≈ 1.62 µM); in assay [2] (ESBL −ve E. coli ATCC25922), 0.125 µg/mL (≈ 0.203 µM); in assay [3] it was 1 µg/mL (≈ 1.62 µM); in assay [4] (setting [10]) it was 0.5 µg/mL (≈ 0.812 µM).

As to `C[C@@H](NC(=O)Cn1cnnn1)[C@H]1C(=O)N2C(C(=O)O)=C(S[C@@H]3CN[C@H](C(=O)N4CCC5CNCC5(C(=O)O)C4)C3)[C@H](C)[C@H]12` (stereo partly drawn) [Example 563, 5-((2S,4S)-4-((4R,5S,6R)-6-((R)-1-(2-(1H-tetrazol-1-yl)acetamido)ethyl)-2-carboxy-4-methyl-7-oxo-1-azabicyclo[3.2.0]hept-2-en-3-yl-thio)pyrrolidine-2-carbonyl)octahydro-1H-pyrrolo[3,4-c]pyridine-3a-carboxylic acid], the MIC in assay [1] (setting [9]) came out at 2 µg/mL (≈ 3.24 µM); in assay [2] (ESBL −ve E. coli ATCC25922) it was 0.25 µg/mL (≈ 0.405 µM); in assay [3], 16 µg/mL (≈ 25.9 µM); in assay [4] (setting [10]), 2 µg/mL (≈ 3.24 µM).

As for `C[C@@H](NC(=O)Cn1cnnn1)[C@H]1C(=O)N2C(C(=O)O)=C(S[C@@H]3CN[C@H](C(=O)N4CC5CCNC5C4)C3)[C@H](C)[C@H]12` (stereo partly drawn) [Example 506, (4R,5S,6R)-6-((R)-1-(2-(1H-tetrazol-1-yl)acetamido)ethyl)-4-methyl-3-((3S,5S)-5-(octahydropyrrolo[3,4-b]pyrrole-5-carbonyl)pyrrolidin-3-ylthio)-7-oxo-1-azabicyclo[3.2.0]hept-2-ene-2-carboxylic acid], the MIC in assay [1] (setting [9]) is 1 µg/mL (≈ 1.79 µM); in assay [2] (ESBL −ve E. coli ATCC25922), 0.25 µg/mL (≈ 0.447 µM); in assay [3] it was 4 µg/mL (≈ 7.15 µM); in assay [4] (setting [10]) it was 1 µg/mL (≈ 1.79 µM).

`CCOC(=O)c1nnnn1CC(=O)N[C@H](C)[C@H]1C(=O)N2C(C(=O)O)=C(S[C@@H]3CN[C@H](C(=O)N4CC[C@@H](N)C4)C3)[C@H](C)[C@H]12` [Example 339, (4R,5S,6R)-3-((3S,5S)-5-((R)-3-aminopyrrolidine-1-carbonyl)pyrrolidin-3-ylthio)-6-((R) - 1-(2-(5-(ethoxycarbonyl) - 1H-tetrazol-1-yl)acetamido)ethyl)-4-methyl-7-oxo-1-azabicyclo[3.2.0]bept-2-ene-2-carboxylic acid]: the MIC stood at 32 µg/mL (≈ 52.8 µM) in assay [1] (setting [5]), 1 µg/mL (≈ 1.65 µM) in assay [2] (setting [6]), 8 µg/mL (≈ 13.2 µM) in assay [3] (setting [7]) and 32 µg/mL (≈ 52.8 µM) in assay [4] (setting [8]).

As to `C[C@@H](NC(=O)CN1CCC2CNCCC21)[C@H]1C(=O)N2C(C(=O)O)=C(S[C@@H]3CN[C@H](C(=O)N(C)C)C3)[C@H](C)[C@H]12` (single isomer, unassigned) [Example 519], the MIC was more than 128 µg/mL in assay [1] (setting [5]), 2 µg/mL (≈ 3.64 µM) in assay [2] (setting [6]), 16 µg/mL (≈ 29.2 µM) in assay [3] (setting [7]) and 16 µg/mL (≈ 29.2 µM) in assay [4] (setting [8]).

With `C[C@@H](NC(=O)C(N)C(F)(F)F)[C@H]1C(=O)N2C(C(=O)O)=C(S[C@@H]3CN[C@H](C(=O)N(C)C)C3)[C@H](C)[C@H]12` (stereo partly drawn) [Example 389, (4R,5S,6R)-6-((1R)-(2-amino-3,3,3-trifluoropropanamido)ethyl)-3-((3S,5S)-5-(dimethylcarbamoyl)pyrrolidin-3-ylthio)-4-methyl-7-oxo-1-azabicyclo[3.2.0]hept-2-ene-2-carboxylic acid], the MIC in assay [1] (setting [9]) is more than 128 µg/mL; in assay [2] (ESBL −ve E. coli ATCC25922), 1 µg/mL (≈ 1.97 µM); in assay [3], 8 µg/mL (≈ 15.8 µM); in assay [4] (setting [10]), 4 µg/mL (≈ 7.88 µM).

In the case of `C[C@@H](NC(=O)Cn1cnnn1)[C@H]1C(=O)N2C(C(=O)O)=C(S[C@@H]3CN[C@H](C(=O)N4CCC5(CCNC5)C4)C3)[C@H](C)[C@H]12` (single isomer, unassigned) [Example 488], the MIC in assay [1] (setting [9]) is 2 µg/mL (≈ 3.49 µM); in assay [2] (setting [6]), 0.25 µg/mL (≈ 0.436 µM); in assay [3] (setting [7]), 4 µg/mL (≈ 6.97 µM); in assay [4] (setting [8]) it was 1 µg/mL (≈ 1.74 µM).

For `C[C@@H](NC(=O)Cn1cnnn1)[C@H]1C(=O)N2C(C(=O)O)=C(S[C@@H]3CN[C@H](C(=O)N4C[C@@H](CO)[C@H](NC(=N)N)C4)C3)[C@H](C)[C@H]12` [Example 583, (4R,5S,6R)-6-((R)-1-(2-(1H-tetrazol-1-yl)acetamido)ethyl)-3-((3S,5S)-5-((3S,4R)-3-guanidino-4-(hydroxymethyl)pyrrolidine-1-carbonyl)pyrrolidin-3-ylthio)-4-methyl-7-oxo-1-azabicyclo[3.2.0]hept-2-ene-2-carboxylic acid], the minimal inhibitory concentration (MIC) in assay [1] (setting [5]) was found to be 0.5 µg/mL (≈ 0.826 µM); in assay [2] (setting [6]) it was 0.03 µg/mL (≈ 0.0495 µM); in assay [3] (setting [7]), 1 µg/mL (≈ 1.65 µM); in assay [4] (setting [8]), 1 µg/mL (≈ 1.65 µM).

For `C[C@@H](NC(=O)Cn1cnnn1)[C@H]1C(=O)N2C(C(=O)O)=C(S[C@@H]3CN[C@H](C(=O)N4CCC[C@@H](N)C4)C3)[C@H](C)[C@H]12` [Example 336, (4R,5S,6R)-6-((R) - 1-(2-(1H-tetrazol-1-yl)acetamido)ethyl)-3-((3S,5S)-5-((R)-3-aminopiperidine-1-carbonyl)pyrrolidin-3-ylthio)-4-methyl-7-oxo-1-azabicyclo[3.2.0]hept-2-ene-2-carboxylic acid], the MIC stood at 8 µg/mL (≈ 14.6 µM) in assay [1] (setting [5]), 1 µg/mL (≈ 1.83 µM) in assay [2] (setting [6]), 4 µg/mL (≈ 7.3 µM) in assay [3] (setting [7]) and 4 µg/mL (≈ 7.3 µM) in assay [4] (setting [8]).

Regarding `C[C@@H](NC(=O)Cn1cnnn1)[C@H]1C(=O)N2C(C(=O)O)=C(S[C@@H]3CN[C@H](C(=O)N4CC(N)C(CO)C4)C3)[C@H](C)[C@H]12` (single isomer, unassigned) [Example 587], the MIC in assay [1] (setting [9]) is 2 µg/mL (≈ 3.55 µM); in assay [2] (ESBL −ve E. coli ATCC25922) it was 0.25 µg/mL (≈ 0.444 µM); in assay [3], 4 µg/mL (≈ 7.1 µM); in assay [4] (setting [10]), 2 µg/mL (≈ 3.55 µM).

For `C[C@@H](NC(=O)Cn1cnnn1)[C@H]1C(=O)N2C(C(=O)O)=C(S[C@@H]3CN[C@H](C(=O)N4CCC(C)(N)CC4)C3)[C@H](C)[C@H]12` [Example 332, (4R,5S,6R)-6-((R) - 1-(2-(1H-tetrazol-1-yl)acetamido)ethyl)-3-((3S,5S)-5-(4-amino-4-methylpiperidine-1-carbonyl)pyrrolidin-3-ylthio)-4-methyl-7-oxo-1-azabicyclo[3.2.0]hept-2-ene-2-carboxylic acid], the MIC in assay [1] (setting [5]) stood at 8 µg/mL (≈ 14.2 µM); in assay [2] (setting [6]), 1 µg/mL (≈ 1.78 µM); in assay [3] (setting [7]), 8 µg/mL (≈ 14.2 µM); in assay [4] (setting [8]) it was 4 µg/mL (≈ 7.12 µM).

Regarding `C[C@@H](NC(=O)Cn1nnnc1N(C)C)[C@H]1C(=O)N2C(C(=O)O)=C(S[C@@H]3CN[C@H](C(=O)N4CC[C@@H](N)C4)C3)[C@H](C)[C@H]12` [Example 384, (4R,5S,6R)-3-((3S,5S)-5-((R)-3-aminopyrrolidine-1-carbonyl)pyrrolidin-3-ylthio)-6-((R)-1-(2-(5-(dimethylamino)-1H-tetrazol-1-yl)acetamido)ethyl)-4-methyl-7-oxo-1-azabicyclo[3.2.0]hept-2-ene-2-carboxylic acid], the MIC was determined as 64 µg/mL (≈ 111 µM) in assay [1] (setting [5]), 0.5 µg/mL (≈ 0.867 µM) in assay [2] (setting [6]), 4 µg/mL (≈ 6.94 µM) in assay [3] (setting [7]) and 4 µg/mL (≈ 6.94 µM) in assay [4] (setting [8]).

For `C[C@@H](NC(=O)CC1CCCN1)[C@H]1C(=O)N2C(C(=O)O)=C(S[C@@H]3CN[C@H](C(=O)N4CCC(N)C4)C3)[C@H](C)[C@H]12` (stereo in doubt) [Example 509, (4R,5S,6R)-3-((3S,5S)-5-((R)-3-aminopyrrolidine-1-carbonyl)pyrrolidin-3-ylthio)-4-methyl-7-oxo-6-((R)-1-(2-((S)-pyrrolidin-2-yl)acetamido)ethyl)-1-azabicyclo[3.2.0]hept-2-ene-2-carboxylic acid], the MIC in assay [1] (setting [5]) is 32 µg/mL (≈ 59.8 µM); in assay [2] (setting [6]), 4 µg/mL (≈ 7.48 µM); in assay [3] (setting [7]), 32 µg/mL (≈ 59.8 µM); in assay [4] (setting [8]), 4 µg/mL (≈ 7.48 µM).
